Measured values as given in US7863285B2, “Purinone derivatives as HM74A agonists” (Incyte Corporation, priority 2006, dated 2011).

Key:
mature adipocytes = assay: Adipocyte lipolysis assay; type: cell-based; conditions: glycerol in supernatants after overnight culture with IBMX (100 μM)
Experimental: Preadipocytes purchased from Zen Bio were plated at 8.7×10^4 cells/well in 96-well plates, differentiated for 14 days and mature adipocytes assayed during days 15 through 21. Adipocyte maturation is assessed by the presence of rounded cells with large lipid droplets in the cytoplasm. Following maturation, cells were washed and incubated overnight with IBMX (100 μM) and various concentrations of compound diluted in assay buffer containing a final DMSO concentration of 0.1%. After overnight culture, the glycerol concentration in the supernatants was determined with the Lipolysis Assay Kit purchased from Zen-Bio. Absorbance at 540 nm is directly proportional to the glycerol concentration in the sample. IC50 determinations were based on compound inhibition relative to DMSO controls. […] For example, the compound of Example 1 has an IC50 of 100 nM in this assay.

human HM74a [1] = target: T1, human HM74a (Homo sapiens, UniProt Q8TDS4); assay: cAMP assay; type: cell-based; design: expressed in transfected cells; conditions: CHO cells stably transfected with human HM74a; 5 μM forskolin; inhibition relative to DMSO controls
Experimental: CHO cells stably transfected with human HM74a were seeded at 7,500 cells/well in a 96-well plate in HAMS F12 medium with 10% FBS. The plate was incubated overnight at 37° C. and 5% CO2. The test compounds were prepared in a stimulation buffer containing 1×HANKS, 20 mM HEPES, 5 μM forskolin, and 0.25 mM IBMX. The media from the cell plate was removed before adding 30 μL of the test compounds. After 30 minute incubation at 37° C. and 5% CO2, the cAMP level was assayed using HitHunter cAMP XS assay kit (DiscoverX, CA). IC50 determinations were based on compound inhibition relative to DMSO controls.
Target sequence in this assay (Q8TDS4 whole entry): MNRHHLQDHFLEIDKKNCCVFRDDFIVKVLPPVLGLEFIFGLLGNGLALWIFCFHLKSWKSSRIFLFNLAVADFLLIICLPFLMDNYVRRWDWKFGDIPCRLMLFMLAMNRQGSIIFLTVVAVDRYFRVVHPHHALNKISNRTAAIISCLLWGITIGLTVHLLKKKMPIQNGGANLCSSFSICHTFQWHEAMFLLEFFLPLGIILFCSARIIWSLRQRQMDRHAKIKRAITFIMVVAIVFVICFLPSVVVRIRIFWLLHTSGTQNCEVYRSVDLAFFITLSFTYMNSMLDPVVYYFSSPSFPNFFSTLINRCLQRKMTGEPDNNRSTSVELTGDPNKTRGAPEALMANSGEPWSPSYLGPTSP

human HM74a [2] = target: T1, human HM74a; assay: GTPγS recruitment assay; type: biochemical; design: expressed in transfected cells; host or cells: HEK293 cells, transient transfection, membrane preparation; conditions: membranes of HEK293 cells transfected with human HM74a and Gα0; 35S GTPγS
Experimental: Membranes were prepared from HEK293 cells transiently transfected with human HM74a and Gα0 protein. Assays were performed in 384-well format in a volume of 50 μL per assay point. Serial dilutions of compounds were prepared in the assay buffer (20 mM HEPES pH. 7.4, 100 mM NaCl, 10 mM MgCl2, 10 mg/L saponin and 10 μM GDP) and mixed with membranes (2 μg per assay point) and ^35S GTPγS (Amersham, 0.3 nM) in the assay buffer. The mixtures were incubated at room temperature for 30 min and wheat germ agglutinin SPA beads (Amersham) (0.2 mg per assay point) in the assay buffer were added. After 30 min incubation with agitation, plates were centrifuged at 1500 g for 5 min and bound ^35S GTPγS was determined by counting on a TopCount scintillation counter.
Target sequence in this assay (Q8TDS4 whole entry): as above
Target sequence in this assay (P09471 2-354 partner limits assumed): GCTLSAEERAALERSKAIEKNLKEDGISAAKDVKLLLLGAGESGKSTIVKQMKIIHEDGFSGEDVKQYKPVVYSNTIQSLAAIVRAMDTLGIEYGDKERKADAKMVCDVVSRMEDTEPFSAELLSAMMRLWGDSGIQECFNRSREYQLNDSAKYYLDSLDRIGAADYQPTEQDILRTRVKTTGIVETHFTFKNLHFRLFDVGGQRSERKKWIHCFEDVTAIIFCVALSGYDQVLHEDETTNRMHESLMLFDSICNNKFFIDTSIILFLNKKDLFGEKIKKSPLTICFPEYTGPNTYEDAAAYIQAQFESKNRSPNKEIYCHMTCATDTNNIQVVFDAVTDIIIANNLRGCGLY
Target sequence in this assay (P62873 2-340 partner limits assumed): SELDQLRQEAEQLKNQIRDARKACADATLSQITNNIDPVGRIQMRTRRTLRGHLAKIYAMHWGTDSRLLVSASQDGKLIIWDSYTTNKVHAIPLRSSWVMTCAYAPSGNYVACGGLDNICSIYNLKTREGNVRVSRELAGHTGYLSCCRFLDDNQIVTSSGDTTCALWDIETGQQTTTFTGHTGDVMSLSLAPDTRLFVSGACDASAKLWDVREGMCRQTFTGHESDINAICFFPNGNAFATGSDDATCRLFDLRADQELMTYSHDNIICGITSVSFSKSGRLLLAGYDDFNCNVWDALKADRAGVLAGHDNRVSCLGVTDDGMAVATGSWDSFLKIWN
Target sequence in this assay (P59768 2-68 partner limits assumed): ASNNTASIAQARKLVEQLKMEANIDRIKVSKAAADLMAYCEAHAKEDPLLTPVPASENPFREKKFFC

[3] = clinical, cited from earlier work; for lowering of plasma LDL: monotherapy

| SMILES | IC50 (mature adipocytes) | IC50 (human HM74a [1]) | EC50 (human HM74a [2]) | lowering of plasma LDL [3] | decrease of plasma triglycerides [3] | raising HDL levels [3] |
| --- | --- | --- | --- | --- | --- | --- |
| CCCCCn1c(=O)n2cnnc2c2[nH]c(C(F)(F)F)nc21 [Example 1, 6-pentyl-8-(trifluoromethyl)-6,9-dihydro-5H-[1,2,4]triazolo[3,4-i]purin-5-one] | 100 nM | 20 nM | 61 nM |  |  |  |
| O=C1[C@H](CC[C@H](O)c2ccc(F)cc2)[C@@H](c2ccc(O)cc2)N1c1ccc(F)cc1 [Ezetimibe] |  |  |  | 20% |  |  |
| O=C(O)c1cccnc1 [Nicotinic acid, nicotinic acid] |  |  |  | 16% | 38% | 20-30% |
